Calls of active or inactive are those of the source. No cut-off for these calls is given here.
Tests used:
MIA PaCa-2 = assay: cells; conditions: Homo sapiens, MIA PaCa-2, 72 h
Description: Cytotoxicity against human MIA PaCa-2 cells assessed as inhibition of cell growth incubated for 72 hrs by MTT assay

SK-OV-3 = assay: cells; conditions: Homo sapiens, SK-OV-3, 72 h
Description: Cytotoxicity against human SK-OV-3 cells assessed as inhibition of cell growth incubated for 72 hrs by MTT assay

[1] = molecular target: T1, Protein cereblon/Nicotinamide phosphoribosyltransferase (Homo sapiens) (UniProt P43490+Q96SW2); assay: PROTAC activity at CRBN/NAMPT in human SK-OV-3 cells assessed as induction of intracellular NAMPT degradation at 0.5 to 5 uM incubated for 24 hrs by Western blot analysis; assay type: cell-based; conditions: dose 0.5-5 µM
[2] = molecular target: T1, Protein cereblon/Nicotinamide phosphoribosyltransferase (Homo sapiens); assay: PROTAC activity at CRBN/NAMPT in human SK-OV-3 cells assessed as induction of intracellular NAMPT degradation at 0.5 uM incubated for 24 hrs by Western blot analysis relative to control; assay type: cell-based
[3] = molecular target: T1, Protein cereblon/Nicotinamide phosphoribosyltransferase (Homo sapiens); assay: PROTAC activity at CRBN/NAMPT in human SK-OV-3 cells assessed as induction of intracellular NAMPT degradation at 5 uM incubated for 24 hrs by Western blot analysis relative to control; assay type: cell-based
[4] = molecular target: Nicotinamide phosphoribosyltransferase (Mus musculus) (UniProt Q99KQ4); assay: Induction of NAMPT degradation in mouse CT26 cells at 0.1 to 5 uM incubated for 24 hrs by Western blot analysis; assay type: cell-based; conditions: dose 0.1-5 µM
CT26 = assay: cells; conditions: Mus musculus, CT26, 72 h
Description: Cytotoxicity against mouse CT26 cells assessed as inhibition of cell growth incubated for 72 hrs by MTT assay

[5] = molecular target: von Hippel-Lindau disease tumor suppressor/Nicotinamide phosphoribosyltransferase (Mus musculus, UniProt Q99KQ4+P40338); assay: (§1) PROTAC activity at VHL/NAMPT in mouse CT26 cells assessed as induction of intracellular NAMPT degradation incubated for 24 hrs by Western blot analysis; assay type: cell-based
[6] = molecular target: T2, von Hippel-Lindau disease tumor suppressor/Nicotinamide phosphoribosyltransferase (Mus musculus) (UniProt Q99KQ4+P40338); assay: as §1; assay type: cell-based
[7] = molecular target: T3, von Hippel-Lindau disease tumor suppressor/Nicotinamide phosphoribosyltransferase (Homo sapiens, UniProt P43490+P40337); assay: PROTAC activity at VHL/NAMPT in human MKN-45 cells assessed as induction of intracellular NAMPT degradation incubated for 24 hrs by Western blot analysis relative to control; assay type: cell-based
[8] = molecular target: T3, von Hippel-Lindau disease tumor suppressor/Nicotinamide phosphoribosyltransferase; assay: PROTAC activity at VHL/NAMPT in human SK-OV-3 cells assessed as induction of intracellular NAMPT degradation incubated for 24 hrs by Western blot analysis relative to control; assay type: cell-based
[9] = molecular target: T2, von Hippel-Lindau disease tumor suppressor/Nicotinamide phosphoribosyltransferase (Mus musculus); assay: PROTAC activity at VHL/NAMPT in mouse CT26 cells assessed as induction of extracellular NAMPT degradation at 0.1 to 5 uM incubated for 24 hrs by Western blot analysis; assay type: cell-based; conditions: dose 0.1-5 µM
[10] = molecular target: Nicotinamide phosphoribosyltransferase (Homo sapiens) (UniProt P43490); conditions: SK-OV-3, dose 100.0 nM, time 24.0 hrs
Nicotinamide phosphoribosyltransferase (Homo sapiens), sequence (P43490 whole entry, looked up): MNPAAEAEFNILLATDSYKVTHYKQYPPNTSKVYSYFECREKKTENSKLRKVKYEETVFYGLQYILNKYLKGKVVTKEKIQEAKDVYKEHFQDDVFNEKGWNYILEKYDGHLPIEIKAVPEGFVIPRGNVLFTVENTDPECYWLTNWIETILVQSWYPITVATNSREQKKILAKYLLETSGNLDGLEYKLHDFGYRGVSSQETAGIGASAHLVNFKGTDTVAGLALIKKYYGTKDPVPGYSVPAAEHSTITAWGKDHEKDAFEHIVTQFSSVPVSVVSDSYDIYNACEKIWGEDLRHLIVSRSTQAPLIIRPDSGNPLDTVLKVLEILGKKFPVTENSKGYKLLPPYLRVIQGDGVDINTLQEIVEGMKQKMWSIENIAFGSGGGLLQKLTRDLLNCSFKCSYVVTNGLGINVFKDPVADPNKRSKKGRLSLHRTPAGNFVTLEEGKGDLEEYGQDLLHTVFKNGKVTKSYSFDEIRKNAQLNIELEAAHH

T1 sequence (P43490 whole entry, looked up): as above
T1 sequence (Q96SW2 whole entry, looked up): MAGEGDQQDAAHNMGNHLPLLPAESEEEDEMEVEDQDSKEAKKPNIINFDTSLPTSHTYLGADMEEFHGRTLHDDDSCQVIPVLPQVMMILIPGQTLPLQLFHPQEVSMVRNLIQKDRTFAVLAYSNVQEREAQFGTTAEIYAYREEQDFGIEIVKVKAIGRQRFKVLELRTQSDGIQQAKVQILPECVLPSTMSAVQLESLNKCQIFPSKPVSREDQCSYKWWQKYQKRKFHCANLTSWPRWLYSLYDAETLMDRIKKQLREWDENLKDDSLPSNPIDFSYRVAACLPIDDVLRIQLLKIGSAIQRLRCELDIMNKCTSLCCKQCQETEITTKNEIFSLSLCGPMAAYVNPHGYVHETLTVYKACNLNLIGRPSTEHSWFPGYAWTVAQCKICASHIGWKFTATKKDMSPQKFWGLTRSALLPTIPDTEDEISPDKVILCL
T3 sequence (P43490 whole entry): as the sequence (P43490 whole entry, looked up) above
T3 sequence (P40337 whole entry): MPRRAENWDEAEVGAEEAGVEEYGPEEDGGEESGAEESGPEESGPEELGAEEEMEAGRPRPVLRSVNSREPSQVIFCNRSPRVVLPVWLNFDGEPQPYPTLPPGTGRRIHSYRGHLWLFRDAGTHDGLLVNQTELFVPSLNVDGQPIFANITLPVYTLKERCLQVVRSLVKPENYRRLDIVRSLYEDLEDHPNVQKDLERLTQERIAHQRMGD
T2 sequence (P40338 whole entry, looked up): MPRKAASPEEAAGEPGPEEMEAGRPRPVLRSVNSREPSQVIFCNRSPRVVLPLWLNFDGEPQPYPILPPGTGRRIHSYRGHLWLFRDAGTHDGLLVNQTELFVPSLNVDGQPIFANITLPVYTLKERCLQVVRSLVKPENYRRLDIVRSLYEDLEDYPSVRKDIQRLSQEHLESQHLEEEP
T2 sequence (Q99KQ4 whole entry, looked up): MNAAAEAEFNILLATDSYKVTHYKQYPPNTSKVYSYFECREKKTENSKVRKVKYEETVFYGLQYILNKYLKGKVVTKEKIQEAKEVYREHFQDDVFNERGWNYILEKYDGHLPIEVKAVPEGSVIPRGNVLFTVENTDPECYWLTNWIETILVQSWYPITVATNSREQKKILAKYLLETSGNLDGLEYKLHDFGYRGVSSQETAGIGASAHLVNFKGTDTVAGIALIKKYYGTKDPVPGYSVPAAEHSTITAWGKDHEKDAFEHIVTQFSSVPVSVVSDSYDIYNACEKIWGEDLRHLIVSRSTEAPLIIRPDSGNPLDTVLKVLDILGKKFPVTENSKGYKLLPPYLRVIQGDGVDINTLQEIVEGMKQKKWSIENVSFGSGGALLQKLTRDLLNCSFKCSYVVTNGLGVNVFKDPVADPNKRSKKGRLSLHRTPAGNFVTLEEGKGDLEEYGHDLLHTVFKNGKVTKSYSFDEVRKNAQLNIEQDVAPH
von Hippel-Lindau disease tumor suppressor/Nicotinamide phosphoribosyltransferase (Mus musculus, UniProt Q99KQ4+P40338), sequence (Q99KQ4 whole entry): as the sequence (Q99KQ4 whole entry, looked up) above
von Hippel-Lindau disease tumor suppressor/Nicotinamide phosphoribosyltransferase (Mus musculus, UniProt Q99KQ4+P40338), sequence (P40338 whole entry): as the sequence (P40338 whole entry, looked up) above
Nicotinamide phosphoribosyltransferase (Mus musculus), sequence (Q99KQ4 whole entry, looked up): as the sequence (Q99KQ4 whole entry, looked up) above

IC50 (MIA PaCa-2) [nM]	IC50 (SK-OV-3) [nM]	Activity [1]	Activity [2] [%]	Activity [3] [%]	Structure (SMILES)	also measured
4	4	inactive	–	–	O=C(/C=C/c1cccnc1)NCCCCC1CCN(C(=O)c2ccc(C(=O)N3CCN(Cc4ccc(CNc5cccc6c5C(=O)N(C5CCC(=O)NC5=O)C6=O)cc4)CC3)cc2)CC1 (centres undefined)	–
4	4	–	25	30	O=C(/C=C/c1cccnc1)NCCCCC1CCN(C(=O)c2ccc(C(=O)NCc3cn(CCOCCNc4cccc5c4C(=O)N(C4CCC(=O)NC4=O)C5=O)nn3)cc2)CC1 (centres undefined)	–
4	4	inactive	–	–	O=C(/C=C/c1cccnc1)NCCCCC1CCN(C(=O)c2ccc(C(=O)N3CCC(C(=O)N4CCN(c5cccc6c5C(=O)N(C5CCC(=O)NC5=O)C6=O)CC4)CC3)cc2)CC1 (centres undefined)	–
4	4	–	0	0	O=C(/C=C/c1cccnc1)NCCCCC1CCN(C(=O)c2ccc(NC(=O)CCOCCOCCOCCOCCNc3cccc4c3C(=O)N(C3CCC(=O)NC3=O)C4=O)cc2)CC1 (centres undefined)	–
–	–	–	–	–	Cc1ncsc1-c1ccc([C@H](C)NC(=O)[C@H]2C[C@H](O)CN2C(=O)[C@@H](NC(=O)COCCOCCOCCNC(=O)c2ccc(C(=O)N3CCC(CCCCNC(=O)/C=C/c4cccnc4)CC3)cc2)C(C)(C)C)cc1	Activity [4]: inactive
4	4	–	0	0	O=C(/C=C/c1cccnc1)NCCCCC1CCN(C(=O)c2ccc(C(=O)NCCCCCNc3cccc4c3C(=O)N(C3CCC(=O)NC3=O)C4=O)cc2)CC1 (centres undefined)	–
4	4	–	34	20	O=C(/C=C/c1cccnc1)NCCCCC1CCN(C(=O)c2ccc(C(=O)NCc3cn(CCOCCOCCOCCNc4cccc5c4C(=O)N(C4CCC(=O)NC4=O)C5=O)nn3)cc2)CC1 (centres undefined)	–
4	4	–	0	0	O=C(/C=C/c1cccnc1)NCCCCC1CCN(C(=O)c2ccc(C(=O)NCCCCCCNc3cccc4c3C(=O)N(C3CCC(=O)NC3=O)C4=O)cc2)CC1 (centres undefined)	–
4	4	inactive	–	–	O=C(/C=C/c1cccnc1)NCCCCC1CCN(C(=O)c2ccc(C(=O)N3CCC4(CC3)CC(C(=O)N3CCN(c5cccc6c5C(=O)N(C5CCC(=O)NC5=O)C6=O)CC3)C4)cc2)CC1 (centres undefined)	–
4	4	inactive	–	–	O=C(/C=C/c1cccnc1)NCCCCC1CCN(C(=O)c2ccc(C(=O)N3CCC4(CC3)CN(c3cccc5c3C(=O)N(C3CCC(=O)NC3=O)C5=O)C4)cc2)CC1 (centres undefined)	–
4	4	–	0	0	O=C(/C=C/c1cccnc1)NCCCCC1CCN(C(=O)c2ccc(NC(=O)COCCOCCOCCOCCNc3cccc4c3C(=O)N(C3CCC(=O)NC3=O)C4=O)cc2)CC1 (centres undefined)	–
4	4	–	0	0	O=C(/C=C/c1cccnc1)NCCCCC1CCN(C(=O)c2ccc(NC(=O)COCCOCCOCCNc3cccc4c3C(=O)N(C3CCC(=O)NC3=O)C4=O)cc2)CC1 (centres undefined)	–
4	4	–	40	27	O=C(/C=C/c1cccnc1)NCCCCC1CCN(C(=O)c2ccc(C(=O)NCc3cn(CCOCCOCCOCCOCCNc4cccc5c4C(=O)N(C4CCC(=O)NC4=O)C5=O)nn3)cc2)CC1 (centres undefined)	–
4	4	–	0	0	O=C(/C=C/c1cccnc1)NCCCCC1CCN(C(=O)c2ccc(NC(=O)COCCOCCNc3cccc4c3C(=O)N(C3CCC(=O)NC3=O)C4=O)cc2)CC1 (centres undefined)	–
4	4	–	0	0	O=C(/C=C/c1cccnc1)NCCCCC1CCN(C(=O)c2ccc(C(=O)NCCCCCc3cccc4c3CN(C3CCC(=O)NC3=O)C4=O)cc2)CC1 (centres undefined)	–
4	4	inactive	–	–	O=C(/C=C/c1cccnc1)NCCCCC1CCN(C(=O)c2ccc(C(=O)N3CC4(CCN(c5cccc6c5C(=O)N(C5CCC(=O)NC5=O)C6=O)CC4)C3)cc2)CC1 (centres undefined)	–

IC50 (MIA PaCa-2) [nM]	IC50 (SK-OV-3) [nM]	Activity [1]	Activity [2] [%]	Activity [3] [%]	Structure (SMILES)	also measured
4	4	inactive	–	–	O=C(/C=C/c1cccnc1)NCCCCC1CCN(C(=O)c2ccc(C(=O)N3CCC4(C3)CN(c3cccc5c3C(=O)N(C3CCC(=O)NC3=O)C5=O)C4)cc2)CC1 (centres undefined)	–
4	4	–	29	0	O=C(/C=C/c1cccnc1)NCCCCC1CCN(C(=O)c2ccc(C(=O)NCCCNc3cccc4c3C(=O)N(C3CCC(=O)NC3=O)C4=O)cc2)CC1 (centres undefined)	–
4	4	inactive	–	–	O=C(/C=C/c1cccnc1)NCCCCC1CCN(C(=O)c2ccc(NC(=O)c3ccc(CN4CCN(c5cccc6c5C(=O)N(C5CCC(=O)NC5=O)C6=O)CC4)cc3)cc2)CC1 (centres undefined)	–
4	4	inactive	–	–	O=C(/C=C/c1cccnc1)NCCCCC1CCN(C(=O)c2ccc(NC(=O)CCCN3CCN(c4cccc5c4C(=O)N(C4CCC(=O)NC4=O)C5=O)CC3)cc2)CC1 (centres undefined)	–
4	4	inactive	–	–	O=C(/C=C/c1cccnc1)NCCCCC1CCN(C(=O)c2ccc(C(=O)N3CCC4(CCN(c5cccc6c5C(=O)N(C5CCC(=O)NC5=O)C6=O)C4)C3)cc2)CC1 (centres undefined)	–
4	4	–	51	52	O=C(/C=C/c1cccnc1)NCCCCC1CCN(C(=O)c2ccc(C(=O)NCc3cn(CCOCCOCCOCCOCCOCCNc4cccc5c4C(=O)N(C4CCC(=O)NC4=O)C5=O)nn3)cc2)CC1 (centres undefined)	–
4	4	inactive	–	–	O=C(/C=C/c1cccnc1)NCCCCC1CCN(C(=O)c2ccc(C(=O)N3CCC(CC(=O)Nc4cccc5c4C(=O)N(C4CCC(=O)NC4=O)C5=O)CC3)cc2)CC1 (centres undefined)	–
4	4	inactive	–	–	O=C(/C=C/c1cccnc1)NCCCCC1CCN(C(=O)c2ccc(C(=O)N3CCN(c4cccc5c4C(=O)N(C4CCC(=O)NC4=O)C5=O)CC3)cc2)CC1 (centres undefined)	–
4	4	–	0	0	O=C(/C=C/c1cccnc1)NCCCCC1CCN(C(=O)c2ccc(C(=O)NCc3cn(CCOCCOCCNc4cccc5c4C(=O)N(C4CCC(=O)NC4=O)C5=O)nn3)cc2)CC1 (centres undefined)	–
4	4	–	0	22	O=C(/C=C/c1cccnc1)NCCCCC1CCN(C(=O)c2ccc(C(=O)NCCCCNc3cccc4c3C(=O)N(C3CCC(=O)NC3=O)C4=O)cc2)CC1 (centres undefined)	–
4	4	inactive	–	–	O=C(/C=C/c1cccnc1)NCCCCC1CCN(C(=O)c2ccc(C(=O)N3CCC(C(=O)Nc4cccc5c4C(=O)N(C4CCC(=O)NC4=O)C5=O)CC3)cc2)CC1 (centres undefined)	–
4	4	–	0	11	O=C(/C=C/c1cccnc1)NCCCCC1CCN(C(=O)c2ccc(C(=O)NCCNc3cccc4c3C(=O)N(C3CCC(=O)NC3=O)C4=O)cc2)CC1 (centres undefined)	–
4	4	inactive	–	–	O=C(/C=C/c1cccnc1)NCCCCC1CCN(C(=O)c2ccc(NC(=O)CCCCN3CCN(c4cccc5c4C(=O)N(C4CCC(=O)NC4=O)C5=O)CC3)cc2)CC1 (centres undefined)	–
–	9930	–	–	–	Cc1ncsc1-c1ccc([C@@H](C)NC(=O)[C@@H]2C[C@@H](O)CN2C(=O)[C@@H](NC(=O)COCCOCCOCCOCCNC(=O)c2ccc(CN3CCN(S(=O)(=O)c4ccc(NC(=S)NCc5cccnc5)cc4)CC3)cc2)C(C)(C)C)cc1	IC50 (CT26): > 100000 nM
4	890	–	–	–	Cc1ncsc1-c1ccc([C@H](C)NC(=O)[C@@H]2C[C@@H](O)CN2C(=O)[C@@H](NC(=O)COCCOCCOCCOCCNC(=O)c2ccc(C(=O)N3CCC(CCCCNC(=O)/C=C/c4cccnc4)CC3)cc2)C(C)(C)C)cc1	DC50 [5]: 920 nM; Activity [6]: Dose-Dependent Effect; DC50 [7]: 6.4 nM; DC50 [8]: 25 nM; IC50 (CT26): 23100 nM; Activity [9]: Active; inhibition [10]: Active
4	4	inactive	–	–	O=C(/C=C/c1cccnc1)NCCCCC1CCN(C(=O)c2ccc(NC(=O)CN3CCN(c4cccc5c4C(=O)N(C4CCC(=O)NC4=O)C5=O)CC3)cc2)CC1 (centres undefined)	–
